For assay [1], the system named is MKN1 cells (gastric cancer, wt amplified). Nature of the assay: MKN1 CTG proliferation assay (120 h), assay 1. The format is cell-based. Particulars: Homo sapiens, MKN-1, CellTiter-Glo, 400 cells per well. As for the experimental part: MKN1 cells (JCRB0252) are dispensed into white 384-well plates, flat and white bottom (Corning Costar, PNr.: 3570) at a density of 400 cells per well in 50 μL RPMI 1640 (PAN-Biotech, PNr.: P04-18047)+10% FCS (HyClone, PNr.: SH30084.03) (assay 1) or into black 384-well plates, flat and clear bottom (Greiner, PNr. 781091) at a density of 200 cells per well in 60 μl RPMI-1640 (Gibco #A10491)+10% FCS (HyClone, PNr.: SH30084.03)+ PenStrep (Gibco, PNr. 15140-122) (assay 2). […] Compounds (10 mM stock in DMSO) are added at logarithmic dose series using the HP Digital Dispenser D300 (Tecan) (assay 1+2) or the ECHO acoustic liquid handler system (Beckman Coulter) (assay 3), including DMSO controls and normalizing for added DMSO. Plates are incubated for 120 h, and cell viability is measured using CellTiter-Glo luminescent cell viability reagent (Promega product code G7570). Viability (stated as percent of control) is defined as relative luminescence units RLU of each well divided by the RLU of cells in DMSO controls. IC50 values are determined from viability measurements by non-linear regression using a four-parameter model.
For orientation: Cellular ATP, detected with luciferase, serves as a proxy for viable cell number.

Assay [2] relates to A375 cells (melanoma, wt, B-Raf mutant). Nature of the assay: A375 CTG proliferation assay (120 h), negative control. The format is cell-based. Particulars: Homo sapiens, A-375, CellTiter-Glo, negative control cell line. As for the experimental part: A375 cells (ATCC CRL-1619) are dispensed into 384-well plates, flat and clear bottom (Greiner, PNr. 781091) at a density of 300 cells per well in 60 μL DMEM (Sigma D6429)+10% Fetal Calf Serum (HyClone, PNr.: SH30084.03) and incubated at 37° C. in a CO2 incubator overnight. The next day, compounds (10 mM stock in DMSO) are added at logarithmic dose series using the HP Digital Dispenser D300 (Tecan), including DMSO controls. Plates are incubated for 120 h, and cell viability is measured using CellTiter-Glo luminescent cell viability reagent (Promega product code G7570). Viability (stated as percent of control) is defined as relative luminescence units RLU of each well divided by the RLU of cells in DMSO controls. IC50 values are determined from viability measurements by non-linear regression using a four-parameter model.

Each structure is given as a SMILES string.

Broadly, the IC50 is the midpoint of a concentration-inhibition curve. Lower therefore signals greater potency. As for `C[C@H]1CNCCN1c1nccc(-c2noc3c2CCC[C@@]32CCCc3sc(N)c(C#N)c32)n1` [IIf-1], the IC50 is 290 nM in assay [1] and above 3000 nM in assay [2].

The values above are taken from patent US20250129096A1, “ANNULATED 2-AMINO-3-CYANO THIOPHENES AND DERIVATIVES FOR THE TREATMENT OF CANCER” (Boehringer Ingelheim Int'l GmbH Corp., priority 2021, published 2025).
